According to patent US20230190616A1, “COMPOUNDS USEFUL FOR THE TREATMENT AND/OR CARE OF THE SKIN, HAIR, NAILS AND/OR MUCOUS MEMBRANES” (LUBRIZOL ADVANCED MATERIALS, INC., priority 2018, published 2023):

Tests used:
Format in all cases: cell-based
[1] = tested on: human neuroblastoma cell line (SH-SY5Y); assay: Inhibition of noradrenaline (NA) release from human neuroblastoma cells, ELISA; conditions: SH-SY5Y, respect to basal control, mean of 3 assays
Text: Inhibition of noradrenaline release from human neuroblastoma cells.
Release of neurotransmitters by exocytosis in neuromuscular junctions from peripheral neurons to skeletal muscle allows muscle contraction. Face muscles are subject to said contraction and facial muscle contraction is more frequent around eyes, mouth and forehead than elsewhere in the face. With age, continuous release of neurotransmitters into neuromuscular junctions and decrease of elasticity contribute to the increase of facial wrinkles and permanent expression lines. Compounds able to block or decrease exocytosis on neuromuscular junction sites are thus good candidates for the cosmetic treatment of unaesthetic wrinkles. In vitro induction of the neurotransmitter Noradrenaline (NA) release in a human neuroblastoma cell line (SH-SY5Y) is considered a direct and reliable method for exocytosis measurement. The aim of this study is to evaluate the efficacy of the peptides of the invention on the inhibition of neuronal exocytosis by means of measuring the levels of NA release in SH-SY5Y cells by Enzyme-linked Immunosorbent Assay (ELISA).
SH-SY5Y (ECACC) cells are seeded in 12-well plates at a density of 1×10^6 cells/well. After a 6-day culture, medium is removed from wells and cells are treated for 60 minutes with the peptides of the invention dissolved in Hank’s Balanced Salt Solution (HBSS, Life Technologies) at 1 and 2.5 mg/ml. Cells treated with HBSS alone are used as a basal control. To mobilize NA vesicles, supernatants are removed and 100 nM Tetradecanoylphorbol-13-acetate (TPA, Sigma) is dissolved in the presence of test items in HBSS or dissolved in HBSS alone in the case of the basal control. After this, solutions with TPA are removed and NA release is induced by the addition of 10 µM lonomycin (Epica) with 100 nM TPA dissolved in the presence of test items in HBSS or dissolved in HBSS alone in the case of the basal control. Afterwards, the medium in the wells, containing released NA, is collected and centrifuged. Supernatants obtained are used for quantification of NA by ELISA with noradrenalin ELISA kit (IBL International) following manufacturer’s instructions. In brief, direct sandwich ELISA is performed with a plate pre-coated with an anti-NA antibody. The color obtained after substrate addition is directly proportional to the amount of NA present in each condition tested. Absorbance is read in a microplate absorbance reader (Clariostar™, BMG) at 405 nm. The percentage of NA release for each condition is calculated respect to basal control.

[2] = tested on: human subcutaneous pre-adipocytes; assay: Lipid accumulation in coculture of young and old human subcutaneous pre-adipocytes (Adipored staining); conditions: 0.01 mg/ml; for %LA (percentage of lipid accumulation): 12 days, coculture of donor cells, respect to coculture control = 100
Text: In vitro effect of PEP-22 and PEP-23 in lipid accumulation in human subcutaneous pre-adipocytes.
Measurement of lipid accumulation in a coculture of young and old adipose cells indirectly evaluates the inhibition of SASP. A pool of old adipose cells has a higher number of senescent cells. When cocultured with young cells, lipid accumulation observed is below the theoretically expected levels due to a senescence induction effect of SASP from old to young adipocytes.
Induction of lipid accumulation by the peptides of the invention is evaluated by lipid fluorescent staining with Adipored® Assay Reagent. The aim of this study is to investigate the capacity of peptide candidates to induce lipid accumulation in human subcutaneous adipocytes, and therefore prevent adipocytes senescence.
Human subcutaneous pre-adipocytes (donors, Cell applications) cells are cocultured in 96-well plates at a density of 4×10^3 cells/well each age in Human Preadipocyte Growth Medium (Sigma). Monoculture of each age are seeded at a density of 8×10^3 cells/well as age lipid accumulation controls. After 24 hours incubation, differentiation of pre-adipocytes into adipocytes is induced by changing medium to fresh Human Preadipocyte Differentiation Medium (Promocell). At the same time, cocultured cells are treated with 0.01 mg/ml of peptides of the invention. Non-treated cocultured cells are used as basal control and monocultured young and old cells as age lipid accumulation controls. After 12 days of treatment and differentiation, cells are stained with Adipored® Assay Reagent (Lonza) following the manufacturer’s instructions. In brief, the plate is washed with Phosphate Buffer Saline (Sigma) and then Adipored® reagent and Hoechst 33342 (Life technologies) are added and incubated for 15 minutes at 37° C. Finally, fluorescence intensity and nuclei number are measured by Operetta (Perkin Elmer). Fluorescence is normalized by cell nuclei and results are represented respect to cocultured basal control. Abbreviations: % LA = Percentage of lipid accumulation; CC = Coculture control; YC = young control; OC = old control.

[3] = tested on: human muscular skeletal cells (hSKMC); assay: Alleviation of TNF-α induced muscle mass loss in human skeletal muscle cells by immunofluorescence; conditions: for % Loss (muscle mass loss): 0.01 mg/ml peptide after 20 ng/ml TNFα, normalized to mass loss control (BC + TNF) = 100; for Mass loss compared to basal control treated with TNF-α (in words): 0.01 mg/ml, hSKMC
Procedure: In vitro alleviation of the effects of muscle mass loss induced in human skeletal muscle cells by immunofluorescence.
Muscle mass loss correction by the peptides of the invention is evaluated by an immunofluorescence assay. The aim of this study is to investigate the capacity of peptide candidates to alleviate muscular mass loss after treatment with TNF-α in human muscular skeletal cells (hSKMC), i.e., to reverse the adverse effects induced by TNF-α (a model of muscular ageing). Myosin heavy chain (MHyC) is used as a morphologic marker of differentiated myotubes allowing the measurement of their diameters, and this can be used to ascertain a degree of mass loss. Tumor necrosis factor α (TNF-α) has been described in the literature as a muscle mass loss inductor.
hSKMC (Tebu-Bio) are seeded in 96-well plates at a density of 1.5×10^4 cells/well in Skeletal Muscle Cell Growth Medium (Promocell). After 24 hours incubation, the medium is replaced with Skeletal Muscle Cell Differentiation Medium (Promocell) and cells are differentiated for 6 days. After this, muscular cells mass loss is induced by adding fresh differentiation medium with 20 ng/ml TNFα (Sigma). Non-TNFα treated cells are used as a basal control (BC). After 24 hours of mass loss induction, the culture medium is replaced in some of the well plates with fresh differentiation medium comprising 0.01 mg/ml of the peptides of the invention. TNFα treated cells which are not treated with peptides are used as a mass loss control (BC + TNF) and cells which are treated with neither the peptides of the invention nor TNFα are used as a basal mass loss control (BC). Treatment is renewed 24 hours later. After 24 hours after the second treatment, immunofluorescence is determined. Cells are fixed 15 minutes with 4% Paraformaldehyde (Sigma), permeated 15 minutes with 1% Triton X-100 (Sigma) and then blocked with 5% Bovine Serum Albumin (Sigma). Next, primary antibody Anti-MHyC mouse (1:100, Vitro) is added and incubated overnight at 4° C. After that, secondary antibody Alexa Fluor 488 goat anti-mouse IgG (1:250, Life Technologies) is added and incubated for 1 hour. Finally, myotube diameters are determined by imaging MHyC staining by Operetta™ (Perkin Elmer). Percentage of mass loss is automatically calculated with Harmony™ (Perkin Elmer) software by classifying myotubes according to their diameter using a mass loss threshold of 20 µm. The results are normalized to the mass loss control (BC + TNF).

Substance	% Released NA ([1]; 1 mg/ml) [%]	% Released NA ([1]; 2.5 mg/ml) [%]	Lipid accumulation in adipocytes compared to coculture basal control (in words) [2]	%LA (percentage of lipid accumulation) [2] [%]	% Loss (muscle mass loss) [3] [%]	Mass loss compared to basal control treated with TNF-α (in words) [3]
Ac-L-Arg-L-Arg-D-Gln-L-Met-L-Glu-L-Glu-NH2 [PEP-22]	58.9	49.0	increase lipid accumulation	133.9	76.2	alleviate mass loss
Ac-L-Arg-L-Arg-L-Gln-D-Met-L-Glu-L-Glu-NH2 [PEP-23]	78.9	52.8	increase lipid accumulation	159.9	71.9	alleviate mass loss
